Measured values as given in PMC5306082, “Physiologically based kinetic modeling of the bioactivation of myristicin” (Archives of Toxicology, 2016).
Where two headings read alike, the source gives them in different places.

What was measured:
[1] = uptake from GI tract, assumed from fast and complete absorption of safrole; ref Punt et al. [2008]; cited from earlier work
[2] = Metabolism of myristicin by rat small intestine, lung, kidney microsomes; assay type: in vitro ADME; details: 1000 μM myristicin, 1 mg/mL microsomal protein, NADPH, 30 min
Procedure: (§1) First, it was determined which organs are involved in the biotransformation of myristicin in rat and human. For this purpose, liver, kidney, lung, and small intestine microsomes from male Sprague–Dawley rat and pooled gender human were used. Incubations were performed by adding myristicin to incubation mixtures containing 1 mg/mL of the microsomal protein preparations and 3 mM NADPH in 0.2 M Tris–HCl (pH 7.4). After 1 min of pre-incubation at 37 °C, myristicin (final concentration, 1000 μM) was added from a 100 times concentrated stock solution in DMSO so that the final DMSO content was 1 % (v/v). Incubations were carried out for 30 min after which the reactions were terminated by adding 25 µl (0.25 times the incubation volume) of ice-cold ACN. Samples were centrifuged for 5 min at 13,000×g, and the supernatant was stored at −20 °C until UPLC analysis. As metabolism of myristicin was observed only in incubations with liver microsomes for male rats and pooled gender human, the determination of kinetic constants for the formation of microsomal metabolites was performed only for the liver fractions. Incubations to determine kinetic constants were performed following the conditions described above using final concentrations of myristicin from 25 to 1000 μM for rat and human liver. In all incubations, the final concentration of DMSO, in which myristicin was dissolved, was kept at 1 % (v/v). […]

Mouse liver CD-1 = details: cited from earlier work; for pmol Adduct/mg DNA: female, livers 24 h after treatment
[3] = Metabolism of myristicin by human small intestine, lung, kidney microsomes; assay type: in vitro ADME; details: 1000 μM myristicin, 1 mg/mL microsomal protein, NADPH, 30 min
Procedure: as §1

[4] = system: freshly isolated rat hepatocytes in primary culture; details: 10^−6 to 10^−3 M; ref Howes et al. [1990]; cited from earlier work
male B6C3F1 mice = details: total dose 3.75 or 4.75 µmol injected over 22 days, 12 or 18 months; ref Miller et al. [1983]; cited from earlier work
[5] = Margin of exposure (MOE) risk assessment; details: BMDL10 of safrole
Excerpt: The margin-of-exposure (MOE) concept was applied to assess the possible risks for human health resulting from the daily exposure to myristicin (JECFA [2005]; EFSA [2005]; Barlow et al. [2006]; O’Brien et al. [2006]). The MOE is a dimensionless ratio based on a reference point representing a dose causing a low but measurable cancer incidence in experimental animals (e.g., a BMDL10), which is divided by the estimated daily intake in humans (EFSA [2005]). […] The estimated daily intake of safrole from spice and spice oil in the USA amounts to 0.001 mg/kg bw per day (WHO [2009]).

New born mice B6C3F1 = details: male, injections on days 1, 8, 15, 22 after birth, ref Phillips et al. (1984), cited from earlier work
DNA = details: ref Zhou et al. [2007a]; Kobets et al. [2016]; Phillips et al. [1984]; Randerath et al. [1984]; cited from earlier work
pregnant ICR mice = details: single dose of 6 mg myristicin by gastric intubation; ref Randerath et al. [1993]; cited from earlier work
[6] = ref EFSA [2012]; Zhou et al. [2007b]; cited from earlier work
[7] = system: Cultured human HepG2 cells; details: harvested after 24 h, ref Zhou et al. (2007a), cited from earlier work
[8] = Sulfonation of 1′-hydroxymyristicin, male rat liver S9; assay type: in vitro ADME
Procedure: (§2) The formation of 1′-sulfoxymyristicin was determined using incubations containing male rat liver Sprague–Dawley or pooled gender human liver S9 proteins, PAPS as a cofactor, and GSH, which acts as a scavenger of the reactive carbocation formed due to the unstable nature of the 1′-sulfoxy metabolite in an aqueous environment (van den Berg et al. [2012]; Martati et al. [2011]; Al-Subeihi et al. [2011]). Incubation mixtures containing (final concentrations) 10 mM of GSH, 0.2 mM of PAPS, and 3 mg/ml of S9 proteins in 0.1 M potassium phosphate (pH 8.2) were pre-incubated for 1 min at 37 °C. After the pre-incubation, 1′-hydroxymyristicin dissolved in DMSO was added in final concentrations ranging between 10 and 6000 μM while keeping the final content of DMSO at 1 % (v/v). The reaction was terminated after 360 min of incubation by adding 25 μl (0.25 times the incubation volume) of ice-cold ACN. The formation of the GSH conjugate of 1′-sulfoxymyristicin was linear with time and S9 protein concentrations under the experimental conditions used. Blank incubations were performed in the absence of PAPS. Incubations were performed in triplicate. All samples were centrifuged for 5 min at 16,000×g, and the supernatant was stored at −20 °C until ultra-performance liquid chromatography (UPLC) analysis.
(§3) Quantification of 1′-sulfoxymyristicin was done using UPLC analysis as described for the estimation of 1′-sulfoxysafrole (Martati et al. [2011]). […] The gradient for analysis of the metabolite consisted of a mixture of ACN and ultrapure water containing 0.1 % (v/v) TFA. The flow rate was 0.6 ml/min, starting at 0 % ACN and increasing the percentage of ACN to 20 % over 0.2 min, followed by an increase to 30 % ACN over 4.3 min, then increasing to 100 % over 0.3 min, and keeping it at 100 % for 0.2 min, and finally decreasing to 0 % over 0.2 min and keeping it at 0 % for 0.8 min. Separation and purification of the GSH adduct of 1′-sulfoxymyristicin was performed by collecting the peak of the metabolite from the UPLC column. […]

[9] = Sulfonation of 1′-hydroxymyristicin, human liver S9; assay type: in vitro ADME
Procedure: as §2, §3

rat urine = system: rat urine; design: method as in Beyer et al. [2006]; details: single oral dose 100 mg/kg bw myristicin, urine over 24 h; ref Beyer et al. [2006]; cited from earlier work
[10] = Microsomal conversion of myristicin, human liver microsomes; assay type: in vitro ADME
Procedure: (§4) First, it was determined which organs are involved in the biotransformation of myristicin in rat and human. For this purpose, liver, kidney, lung, and small intestine microsomes from male Sprague–Dawley rat and pooled gender human were used. Incubations were performed by adding myristicin to incubation mixtures containing 1 mg/mL of the microsomal protein preparations and 3 mM NADPH in 0.2 M Tris–HCl (pH 7.4). After 1 min of pre-incubation at 37 °C, myristicin (final concentration, 1000 μM) was added from a 100 times concentrated stock solution in DMSO so that the final DMSO content was 1 % (v/v). Incubations were carried out for 30 min after which the reactions were terminated by adding 25 µl (0.25 times the incubation volume) of ice-cold ACN. Samples were centrifuged for 5 min at 13,000×g, and the supernatant was stored at −20 °C until UPLC analysis. As metabolism of myristicin was observed only in incubations with liver microsomes for male rats and pooled gender human, the determination of kinetic constants for the formation of microsomal metabolites was performed only for the liver fractions. Incubations to determine kinetic constants were performed following the conditions described above using final concentrations of myristicin from 25 to 1000 μM for rat and human liver. In all incubations, the final concentration of DMSO, in which myristicin was dissolved, was kept at 1 % (v/v). The formation of different microsomal metabolites was linear with time and microsomal protein concentration under the conditions described. Blank incubations were performed in the absence of the cofactor NADPH. All incubations were performed in triplicate.
(§5) Secondary metabolism of the relevant 1′-hydroxy metabolite of myristicin was taken into account by determining the kinetic constants for its conversion in (a) glucuronidation, (b) sulfation, and (c) oxidation, again under conditions that allowed adequate definition of kinetic constants and with <10 % substrate conversion. Incubation samples were subjected to UPLC analysis that was performed as described previously (Punt et al. [2008]). Identification was achieved by comparing the UV spectra of the formed metabolites to the spectra of the synthesized 1′-hydroxymyristicin and 1′-oxomyristicin reference standards. Quantification of all formed metabolites was done by comparing the peak areas to those of calibration curves of the corresponding reference compounds, determined using UPLC with photodiode array detection (UPLC-PDA). The UPLC system was composed of a Waters (Waters, Milford, MA) Acquity solvent manager, sample manager, and photodiode array detector, equipped with Water Acquity UPLC BEH C18 column.
(§6) The gradient for analysis of microsomal metabolites was performed with 100 % ACN and ultrapure water containing 0.1 % (v/v) TFA. The flow rate was 0.6 ml/min. The gradient started at 10 % ACN, increased to 50 % ACN over 4 min, increased to 80 % over 0.5 min, followed by decrease to 10 % ACN over 0.5 min, and finally kept at 10 % for 1 min.

[11] = Microsomal conversion of myristicin, male rat liver microsomes; assay type: in vitro ADME
Procedure: as §4, §5, §6

experimental animals = details: tumor formation; ref van den Berg et al. [2011]; cited from earlier work
rats or mice = details: chronic oral exposure to high doses, or male CD-1 mice preweaning; ref Borchert et al. [1973]; Drinkwater et al. [1976]; National Toxicology [2000]; cited from earlier work
[12] = 80 mg/kg bw i.p., ref Randerath et al. (1984)
[13] = 400 mg/kg bw i.p., ref Randerath et al. (1984)
[14] = S9 protein yield 143 mg/g liver
[15] = formation of the metabolite from myristicin, NADPH, mean of three ± SD
[16] = formation of the metabolite from myristicin, Vmax/Km × 1000
[17] = from myristicin, scaled Vmax/Km

Structure (SMILES): C=CCc1cc(OC)c2c(c1)OCO2 [Myristicin, 1-allyl-5-methoxy-3,4 methylene-dioxybenzene]
- absorption rate constant (ka) [1]: 1.0 h⁻¹
- metabolism of myristicin in small intestine, lung, or kidney microsomes [2]: no detectable metabolism
- pmol Adduct/mg DNA (Mouse liver CD-1; [12]): 16.8 pmol Adduct/mg DNA
- pmol Adduct/mg DNA (Mouse liver CD-1; [13]): 49.5 pmol Adduct/mg DNA
- metabolism of myristicin in small intestine, lung, or kidney microsomes [3]: no detectable metabolism
- cytotoxicity [4]: showed cytotoxicity
- activity for the initiation of hepatic tumors (male B6C3F1 mice): no detectable activity
- MOE ([5]; estimated daily intake of myristicin 0.0019 mg/kg bw per day from herbs and spices): 1000–2684
- pmol Adduct/mg DNA (New born mice B6C3F1; 36.5 mg/kg bw i.p.): 7.8 pmol Adduct/mg DNA
- DNA adduct formation, result (DNA): positive results
- level of myristicin adducts in fetal liver (pregnant ICR mice): 63 % of the total adducts
- level of myristicin adducts in maternal liver (pregnant ICR mice): 68 % of the total adducts
- in vitro genotoxicity [6]: mutagenic
- pmol Adduct/mg DNA ([7]; 50 uM): 0.017 pmol Adduct/mg DNA
- pmol Adduct/mg DNA ([7]; 150 uM): 0.049 pmol Adduct/mg DNA
- pmol Adduct/mg DNA ([7]; 450 uM): 0.165 pmol Adduct/mg DNA

Structure (SMILES): C=CC(OS(=O)(=O)O)c1cc(OC)c2c(c1)OCO2 (stereo not shown) [1′-Sulfoxymyristicin, 1′-sulfoxymyristicin]
- k, first-order rate constant for product formation ([8]; S9, PAPS, GSH trapping): 17.6 × 10^−6 ml/min/mg protein
- k Scaled [8, 14]: 0.15 ml/hr/g tissue
- k, first-order rate constant for product formation ([9]; S9, PAPS, GSH trapping): 16.3 × 10^−6 ml/min/mg protein
- k Scaled [9, 14]: 0.14 ml/hr/g tissue

Structure (SMILES): C=CCc1cc(O)c(O)c(OC)c1 [5-Allyl-2,3-dihydroxyanisole, 5-allyl-2,3-dihydroxyanisole]
- metabolite in rat urine, percentage of the total dose (rat urine): 67 % of the total dose
- Vmax [10, 15]: 0.93 ± 0.13 nmol min^−1 (mg microsomal or S9 protein)^−1
- In vitro catalytic efficiency [10, 16]: 7.881 μl min^−1 (mg microsomal or S9 protein)^−1
- Scaled Vmax, in vivo ([10]; from myristicin, microsomal protein yield 32 mg/g liver): 1.786 μmol/h/g tissue
- In vivo catalytic efficiency [10, 17]: 0.0151 ml/h/g tissue
- Vmax [11, 15]: 1.3 ± 0.23 nmol min^−1 (mg microsomal or S9 protein)^−1
- In vitro catalytic efficiency [11, 16]: 39.394 μl min^−1 (mg microsomal or S9 protein)^−1
- Scaled Vmax, in vivo ([11]; from myristicin, microsomal protein yield 35 mg/g liver): 2.73 μmol/h/g tissue
- In vivo catalytic efficiency [11, 17]: 0.0827 ml/h/g tissue
- catalytic efficiency, fold higher than for formation of 3′-hydroxymyristicin ([11]; male rat liver microsomes): approximately sevenfold

Structure (SMILES): C=CCc1ccc2c(c1)OCO2 [Safrole, safrole]
- pmol Adduct/mg DNA (Mouse liver CD-1; [12]): 45.9 pmol Adduct/mg DNA
- pmol Adduct/mg DNA (Mouse liver CD-1; [13]): 203.4 pmol Adduct/mg DNA
- DNA adduct after 140 days (persistence) (Mouse liver CD-1; 400 mg/kg bw safrole, liver 140 days after treatment, ref Randerath et al. (1984)): After admin. of dose 400 mg/kg bw safrole, livers were taken after 24 h, 28, 58, 98, and 140 days after each treatment, after 140 days adduct was 21 pmol/mg DNA
- DNA adduct formation in the liver, times higher for safrole than myristicin (Mouse liver CD-1; mice, i.p. injection, ref Randerath et al. [1984]): 2.7 times
- cytotoxicity [4]: cytotoxicity
- unscheduled DNA synthesis (UDS) [4]: induced unscheduled DNA synthesis (UDS)
- MOE ([5]; estimated daily intake of safrole 0.001 mg/kg bw per day from spice and spice oil in the USA): 1900–5100
- pmol Adduct/mg DNA (New born mice B6C3F1; 30.8 mg/kg bw i.p.): 17.5 pmol Adduct/mg DNA
- DNA adduct formation, result (DNA): positive results
- BMDL10 (experimental animals): 1.9–5.1 mg/kg bw per day
- induction of hepatic tumors (rats or mice): induce hepatic tumors
- pmol Adduct/mg DNA ([7]; 150 uM): 0.083 pmol Adduct/mg DNA
- pmol Adduct/mg DNA ([7]; 450 uM): 0.102 pmol Adduct/mg DNA
